Experimental data: patent US20200209247A1, “METHODS FOR IDENTIFYING MYELOMA TUMOR-INITIATING CELLS AND TARGETED THERAPY” (UNIVERSITY OF IOWA RESEARCH FOUNDATION, priority 2017, published 2020)

Test system: RPMI-8226, RPMI-8226-R5 (a drug resistant cell line) cells
Type: cell-based, human
Details: treated in vitro for 72 h; RT-PCR
Protocol: Drug resistance is a critical characteristic of TICs^43. To examine whether CD24^+ cells show higher resistance to chemotherapeutic drugs, the soft agar clonogenic formation assay was employed to examine the response to multiple drugs. […] The ARP1 cells from the 1st passage were collected and re-plated in methylcellulose dishes. CD24^+ and CD24^− ARP1 MM cells in the 2nd passage were treated with bortezomib (2 and 10 nM) or carfilzomib (2.5 and 12.5 nM) or melphalan (2.5 and 12.5 μM) for 2 weeks. CD24^+ ARP1 (FIGS. 5A & 5B) or OCI-MY5 (FIGS. 5C & 5D) MM cells were more pronounced resistant (>2.5-fold) than CD24^− ARP1 or OCI-MY5 MM cells. To directly confirm whether CD24^+ population are enriched upon chemotherapy, we treated RPMI-8226, RPMI-8226-R5 (a drug resistant cell line) cells with bortezmib or melphalan in vitro for 72 h (data not shown).

SMILES	expression of CD24 in survival cells compared to untreated MM cells
CC(C)C[C@H](NC(=O)[C@H](Cc1ccccc1)NC(=O)c1cnccn1)B(O)O [bortezomib]	upregulated
N[C@@H](Cc1ccc(N(CCCl)CCCl)cc1)C(=O)O [melphalan]	upregulated
